Several values for one entry are separate records, joined by “and”; a condition that tells them apart may be missing. Equal entries are not always repeated. Entries after “also recorded” stand apart in the source; their conditions may differ.
Tests used:
[1] = test system: rat isolated islets; test: Insulin release from rat isolated islets (RIA); assay type: cell-based
Description: Dose-dependent increase of intracellular cAMP in the islets following addition of AM. Islets from six rats were isolated following well-established protocols (Gray, et al., Diabetes 33, 1055 (1984)). Assays were performed in 24-well plates (90 islets per well). After a 45 min incubation in […] medium containing 5.6 mM glucose, a second incubation in RPMI containing 20.6 mM glucose and the proper concentration of AM and/or the antibody was performed. Supernatants from both incubations were tested by radioimmunoassay (RIA) for insulin (Amersham, Arlington Heights, Ill.). The ratio between the insulin concentration found in the high glucose supernatant and the insulin measured in the low glucose solution is represented in ordinates. After collecting the medium, the islets from the same experiments were saved for analysis of cAMP contents (Korman, et al., Cancer Res. 46, 1214 (1986)). Islets were extracted in 50% ethanol and centrifuged, and the supernatants were tested for cAMP using a RIA kit (New England Nuclear, Boston, Mass.) following manufacturer's instructions. The experiments were repeated three times and a representative example shown. Data are means±standard deviations of two wells.

[2] = Isoelectric point; assay type: physicochemical
[3] = Oral glucose tolerance test in nonanesthetized rats; assay type: in vivo, Sprague-Dawley rats
Description: Glucose tolerance tests were performed on Sprague-Dawley rats (250 to 300 g) in the presence (◯) or absence (●) of AM. […] Glucose tolerance methods have been published previously (Brown, et al., Proc. Soc. Exp. Biol. Med. 150, 557 (1975)). Six rats were administered a glucose solution (400 mg/100 g body weight) via gastric intubation. Ocular blood samples were collected at intervals following glucose loading, and glucose concentration was determined by a calorimetric assay (Sigma). Blood insulin levels were determined on the same samples by radioimmunoassay (Amersham). Three days later, the same rats received 1 μL, of AM (60 μM) per g body weight through intravenous injection and tolerance tests were repeated. Data are means±standard deviations for the six animals. Two-tailed Student's test was performed to determine statistical significance. (*) indicates statistical significance (p<0.01).

[4] = test system: MCF-7; test: MTT growth assay, MCF-7; assay type: cell-based, human
Description: i. Growth Assays: MTT techniques were performed as previously described (Nakanishi, Y. F., et al., Exper. Cell Biol. 56:74-85 (1988)). In brief, a single cell suspension of 2×10^5 cells/ml (50 μl/well) is seeded into 96-well PVC plates and an appropriate concentration of MoAb-G6 and AM was added in a volume of 50 μl. The assay is performed in TIS medium (RMPI 1640 plus 10 μg/ml transferrin, 10 μg/ml insulin and 3×10^−8M sodium selenite). After 5 days growth at 37° C., 5% CO2, in a humid incubator, the dye and solubilization solutions were added from the Promega Proliferation Assay (Madison, Wis.), which is a variation of the MTT assay (Carmichael, Y. F., et al., Cancer Res. 47:943-946 (1987)). The Biorad Microplate Manager plate reader and software was used to determine the change in number of viable cells from dye reduction measured by absorbance at 570 nm.

[5] = test system: C. albicans; test: Germination assay, C. albicans; assay type: cell-based, Candida albicans
Description: Data were compiled from 11 experiments. Germination was determined by incubating colonies of C. albicans that were harvested from an overnight growth on SDA and suspended on RPMI-1640 containing concentrations of AM from 8 to 85 μM. Organisms were incubated at 37° C. and germination was measured at 2 h and 4 h by reading 100 to 200 organisms per concentration per time point in each experiment. Percent germination was assessed as the proportion of blastoconidia of C. albicans bearing the characteristic parallel-walled tubular element to the total number of blastoconidia.

[6] = test system: rat mast cells
[7] = test system: AM receptor; test: cAMP assay (RIA), MCF-7; assay type: cell-based, human
Description: k. cAMP Assays: Cyclic AMP was assayed by RIA using a kit obtained from New England Nuclear (Boston, Mass.). […] The supernatants were tested for cAMP using the RIA kit following the manufacturer's instructions.

## CC[C@H](C)[C@H](NC(=O)[C@H](CCC(N)=O)NC(=O)[C@H](Cc1c[nH]cn1)NC(=O)[C@H](C)NC(=O)[C@H](CC(C)C)NC(=O)[C@H](CCCCN)NC(=O)[C@H](CCC(N)=O)NC(=O)[C@@H](NC(=O)[C@@H](NC(=O)[C@@H]1CSSC[C@H](NC(=O)CNC(=O)[C@H](Cc2ccccc2)NC(=O)[C@H](CO)NC(=O)[C@H](CCCNC(=N)N)NC(=O)[C@H](CC(C)C)NC(=O)CNC(=O)[C@H](CCC(N)=O)NC(=O)[C@H](Cc2ccccc2)NC(=O)[C@H](CC(N)=O)NC(=O)[C@H](CC(N)=O)NC(=O)[C@H](CCSC)NC(=O)[C@H](CO)NC(=O)[C@H](CCC(N)=O)NC(=O)[C@H](CCCNC(=N)N)NC(=O)[C@@H](N)Cc2ccc(O)cc2)C(=O)N[C@@H](CCCNC(=N)N)C(=O)N[C@@H](Cc2ccccc2)C(=O)NCC(=O)N[C@@H]([C@@H](C)O)C(=O)N1)[C@@H](C)O)C(C)C)C(=O)N[C@@H](Cc1ccc(O)cc1)C(=O)N[C@@H](CCC(N)=O)C(=O)N[C@@H](Cc1ccccc1)C(=O)N[C@H](C(=O)N[C@@H](CC(=O)O)C(=O)N[C@@H](CCCCN)C(=O)N[C@@H](CC(=O)O)C(=O)N[C@@H](CCCCN)C(=O)N[C@@H](CC(=O)O)C(=O)N[C@@H](CC(N)=O)C(=O)N[C@H](C(=O)N[C@@H](C)C(=O)N1CCC[C@H]1C(=O)N[C@@H](CCCNC(=N)N)C(=O)N[C@@H](CO)C(=O)N[C@@H](CCCCN)C(=O)N[C@H](C(=O)N[C@@H](CO)C(=O)N1CCC[C@H]1C(=O)N[C@@H](CCC(N)=O)C(=O)NCC(=O)N[C@@H](Cc1ccc(O)cc1)C(N)=O)[C@@H](C)CC)C(C)C)[C@@H](C)O [AM]
[1]; AM concentration of 1 μM, freshly isolated islets
  inhibition of insulin secretion: 78%
[1]; isolated islets
  effect of AM on insulin secretion: inhibits insulin secretion in a dose-dependent manner; also recorded: dose-dependent reduction of insulin secretion; also recorded: reduces insulin secretion
[2]
  isoelectric point: 9.7 and 10.2
[3]; 20 min after intravenous injection of AM
  insulin levels versus control: Significant differences
[3]; after intravenous injection of AM (1 μL of 60 μM per g body weight)
  duration of block of insulin secretion: at least 20 min
[3]; after intravenous injection of AM, 1 h
  levels of circulating glucose versus control: significantly higher; also recorded: highly significant
[4]; AM 10 μM (FIG. 12B)
  growth suppression by synthetic AM alone: ≈ 10%
[4]; MCF-7
  reversal of MoAb-G6 growth inhibition by exogenous AM: abrogated
[5]; 2 hours incubation
  suppression of germination of C. albicans, 2 hours: non-significant trend in the suppression of germination; also recorded: not significant
[5]; increasing concentrations of AM (8 to 85 μM), 4 hours incubation
  inhibition of germination of C. albicans, 4 hours: significant inhibition of germination
[6]
  EC50: 7.9 ± 3.9 µM
[7]; MCF-7
  effect on cAMP: activated; also recorded: rapid increase in cellular cAMP
[7]; relative to normal control
  maximum elevation of cellular cAMP: three times that of the normal control
